Where “and” joins values, the source holds several entries; their conditions need not be identical. Identical values can stand only once.
Test system: lipid droplet (LD) proteins from mouse white adipose tissue (WAT)
Assay: Stoichiometry of LD protein phosphorylation by isotope tagging and enzymatic (BIAP) dephosphorylation after CL316,243 injection
Format: in vivo
Description: Purification of lipid droplets (LD) from mouse white adipose tissue (WAT). All animals were maintained in the Canadian Council on Animal Care (CCAC)-accredited animal facilities of the CHU Ste-Justine Research Center. Two month-old (˜25-29 g BW) male C57BU6J mice, were purchased from Charles River Canada (St. Constant, PQ, Canada), and housed for an additional month at 25° C. in an animal facility with 12:12 h light-dark cycles. During this time, animals were fed ad libitum with 5K chow (˜18% protein, ˜6% fat, ˜5% fiber). […] The homogenate was filtered through a nylon mesh and centrifuged at 17 g for 2 min. Pellet and infranatant were removed and the floating lipid droplets resuspended in 2 ml of the homogenization buffer and centrifuged as above. After the second wash with 50 mM TRIS, pH 7.4, containing 1 M NaCl (Fisher), the LD were snap-frozen and kept at −80° C. until further use.
Extraction of LD proteins and preparation of peptide digests. Purified LD preparations (average wet weight 250 mg) were resuspended in 1 ml of ice-cold acetone, sonicated for 25 sec at 80 W, incubated for 16 h at −20° C. and centrifuged for 10 min at 13,000 g. The supernatants were discharged and pellets were re-extracted twice with ice-cold acetone (1 h each time). After removal of residual acetone under a stream of nitrogen, the protein pellets were re-suspended in 300 μl of a 0.1% sodium 3-[(2-methyl-2-undecyl-1,3-dioxolan-4-yl)methoxyl]-1-propanesulfonate (RapiGest™ SF) in 50 mM NH4HCO3, pH 7.8, containing 5 mM DTT, then sonicated for 10-25 sec and incubated in a boiling bath for 5 min. After 5-min centrifugation at 13,000 g, supernatants were treated for 30 min with IAA in the dark (final concentration 15 mM), and digested overnight with trypsin (Promega, sequencing grade; trypsin to protein ratio 1:50). After digestion, samples were supplemented with TFA (final concentration 0.5%), incubated at 37° C. for 1 h and centrifuged at 13,000 g for 10-min to remove RapiGest™ SF.
Labeling and dephosphorylation of LD peptides. Peptide digests (˜200 μg of protein) were de-salted by the reverse phase chromatography on macro-C18 spin columns (Harvard apparatus) eluted with 70% acetonitrile in water, dried in a SpeedVac™ Concentrator (Savant) and labeled with heavy or light SIMPL (Stable Isotope-containing Multiplex Peptide Labels) isotope tags as described (Fedjaev et al., 2007, supra). After adjusting pH to 8.0 with 500 mM NH4HCO3, samples were supplemented with 3 units of bovine intestinal alkaline phosphatase (BIAP, Sigma, P-5521) and incubated for 3 h at 37° C. BIAP reaction was terminated by addition of concentrated TCA (Sigma) to a final concentration 10%, followed by 1 h incubation on ice and 30-min centrifugation at 13,000 g. Samples containing dephosphorylated peptides were then mixed 1:1 with untreated samples, extracted twice with ethylacetate (Sigma) to remove the excess of unreacted SIMPL labels and analyzed by 2D-LC-MS/MS as described below.
HPLC of peptides on weak anion exchange (WAX) column. Offline WAX HPLC was performed on an Agilent™ 1100 Series liquid chromatography system. Peptides were loaded on C18 (Jupiter™ 4 μm Proteo 90 Å 50×1 mm, Phenomenex) column in 10 mM ammonium acetate containing 10% ACN, and eluted with step gradient of 70% of ACN directly on the WAX (PolySulfoethyl A […] 5 μm 300 Å) column. The column was washed with 10 mM ammonium acetate buffer containing 10% ACN for 10 min and peptides were eluted with 0-100% gradient of 2 M ammonium formate, 10% ACN. […] fractions of 50 μl were collected. Collected fractions were immediately acidified with FA (final concentration 0.2%) and analyzed by LC-MS/MS.
μLC-MS/MS analysis of LD peptides. Peptides were analyzed using a LC-MS/MS instrument consisting of an Agilent™ 1100 Series nanoflow liquid chromatography system and LC/MSD-Trap-SL™ ion trap mass spectrometer (Agilent Technologies, Santa Clara, Calif., USA). […]

In the case of `C[C@H](Cc1ccc2c(c1)OC(C(=O)[O-])(C(=O)[O-])O2)NC[C@H](O)c1cccc(Cl)c1.[Na+].[Na+]` [CL316,243, disodium 5-[(2R)-2-[[(2R)-2-(3-Chlorophenyl)-2-hydroxyethyl]amino]propyl]-1,3-benzodioxole-2,2-dicarboxylate], the “Mean isotope ratio Treated, peptide KLLVSSEDYGR” value (Alpha II spectrin, LD from WAT, 1 mg/kg i.p., 15 min) is reported as 3.47, the “Ratio Treated, peptide SSEEIESAFR” value (Alpha-II spectrin, z 2, m/z 668.3, LD from WAT of treated mice) is reported as 0.64(2) and the “Ratio Treated, peptide DLTNVQNLQK” value (Alpha-II spectrin, z 2, m/z 674.3, LD from WAT of treated mice) is reported as 0.98(1). For the same compound, the “Ratio Treated, peptide SQLLGSAHEVQR” value (Alpha-II spectrin, z 2, m/z 750.4, LD from WAT of treated mice) was 1.05(4), the “Ratio Treated, peptide DTEQVDNWMSK” value (Alpha-II spectrin, z 2, m/z 764.7, LD from WAT of treated mice) was 1.03(1) and the “Ratio Treated, peptide TKQDEVNAAWQR” value (Alpha-II spectrin, z 2, m/z 813.4, LD from WAT of treated mice) was 0.84(1). The “Ratio Treated, peptide EANELQQWITEK” value (Alpha-II spectrin, z 2, m/z 832.4, LD from WAT of treated mice) was 1.1(3), the “Ratio Treated, peptide MQHNLEQQIQAR” value (Alpha-II spectrin, z 2, m/z 835.9, LD from WAT of treated mice) was 0.94(3) and the “Ratio Treated, peptide HQAFEAELSANQSR” value (Alpha-II spectrin, z 2, m/z 881.9, LD from WAT of treated mice) was 1.24(2). The “Ratio Treated, peptide LIQEQHPEEELIK” value (Alpha-II spectrin, z 2, m/z 891.5, LD from WAT of treated mice) was 1.09(4), the “Ratio Treated, peptide HQAFEAELHANADR” value (Alpha-II spectrin, z 2, m/z 892.5, LD from WAT of treated mice) was 0.84(3) and the “Ratio Treated, peptide HQLLEADISAHEDR” value (Alpha-II spectrin, z 2, m/z 908.1, LD from WAT of treated mice) was 1.04(2). For the same compound, the “Ratio Treated, peptide GNAMVEEGHFAAEDVK” value (Alpha-II spectrin, z 2, m/z 940, LD from WAT of treated mice) was 1.1(2), the “Ratio Treated, peptide AQLADSFHLQQFFR” value (Alpha-II spectrin, z 2, m/z 945, LD from WAT of treated mice) was 1.04(1) and the “Ratio Treated, peptide LSDDNTIGQEEIQQR” value (Alpha-II spectrin, z 2, m/z 961.3, LD from WAT of treated mice) was 1.25(1). The “Ratio Treated, peptide DLAALGDKVNSLGETAQR” value (Alpha-II spectrin, z 2, m/z 1020, LD from WAT of treated mice) was 1.29(1), the “Ratio Treated, peptide SSLSSAQADFNQLAELDR” value (Alpha-II spectrin, z 2, m/z 1064, LD from WAT of treated mice) was 0.99(3) and the “Ratio Treated, peptide SADESGQALLAASHYASDEVR” value (Alpha-II spectrin, z 2, m/z 1177, LD from WAT of treated mice) was 1.14(3). The “Ratio Treated, peptide NQALNTDNYGHDLASVQALQR” value (Alpha-II spectrin, z 2, m/z 1253, LD from WAT of treated mice) was 0.91(3), the “Ratio Treated, peptide HQAFEAELHANADR” value (Alpha-II spectrin, z 3, m/z 597.6, LD from WAT of treated mice) was 0.81(1) and the “Ratio Treated, peptide SADESGQALLAASHYASDEVR” value (Alpha-II spectrin, z 3, m/z 785, LD from WAT of treated mice) was 1.1(3). The “Mean isotope ratio Treated, peptide THVDSLR” value (Apolipoprotein A-I, BIAP-treated/untreated, LD from WAT, 1 mg/kg i.p., 15 min) was −1.12, the “Ratio Treated, peptide (K)VQPYLDEFQK(K)” value (Apolipoprotein A-I, z 2, m/z 721.2, LD from WAT of treated mice) was 0.97(2) and the “Ratio Treated, peptide (R)TQLAPHSEQMR(E)” value (Apolipoprotein A-I, z 2, m/z 736.9, LD from WAT of treated mice) was 0.99(1). The “Ratio Treated, peptide (K)SNPTLNEYHTR(A)” value (Apolipoprotein A-I, z 2, m/z 753.9, LD from WAT of treated mice) was 1(4), the “share of HSL peptide SVSEAALAQPEGLLGTDTLKK phosphorylated” value (LD of stimulated adipocytes) was roughly 80% and the “Mean isotope ratio Treated, peptide SVSEAALAQPEGLLGTDTLK” value (Lipase, hormone sensitive, LD from WAT, 1 mg/kg i.p., 15 min) was 5.1. For the same compound, the “Ratio Treated, peptide (R)LILTPPAAPLN(—)” value (Lipase, hormone sensitive, z 2, m/z 647.8, LD from WAT of treated mice) was 0.78(1), the “Ratio Treated, peptide (R)AAFPEGFHPR(R)” value (Lipase, hormone sensitive, z 2, m/z 652.3, LD from WAT of treated mice) was 1.14(2) and the “Ratio Treated, peptide (R)QATEFCVQR(I)” value (Lipase, hormone sensitive, z 2, m/z 657.2, LD from WAT of treated mice) was 1.01(3). The “Ratio Treated, peptide (K)HCDLLGSTGER(I)” value (Lipase, hormone sensitive, z 2, m/z 710.3, LD from WAT of treated mice) was 1(4), the “Ratio Treated, peptide (K)CVSAYSGTEAEDHFDSDQK(A)” value (Lipase, hormone sensitive, z 2, m/z 1164, LD from WAT of treated mice) was 1.08(1) and the “Ratio Treated, peptide (K)CVSAYSGTEAEDHFDSDQK(A)” value (Lipase, hormone sensitive, z 3, m/z 774.6, LD from WAT of treated mice) was 0.92(1). The “Mean isotope ratio Treated, peptide FVEGLPINDFSR(E)” value (Malate dehydrogenase, cytoplasmic, LD from WAT, 1 mg/kg i.p., 15 min) was 3.08, the “Ratio Treated, peptide (K)GEFITTVQQR(G)” value (Malate dehydrogenase, cytoplasmic, z 2, m/z 677.3, LD from WAT of treated mice) was 1.18(2) and the “Mean isotope ratio Treated, peptide GLSAPSCPNGLDDK” value (Perilipin, LD from WAT, 1 mg/kg i.p., 15 min) was 1.4. For the same compound, the “Mean isotope ratio Treated, peptide LSLMEPESEFRDIDNPSAEAER” value (Perilipin, LD from WAT, 1 mg/kg i.p., 15 min, 1 mg/kg) was 1.6 and 1.63, the “Ratio Treated, peptide GLDHLEEK” value (Perilipin, z 2, m/z 558.3, LD from WAT of treated mice) was 1.05(4) and the “Ratio Treated, peptide EVTALPNPR” value (Perilipin, z 2, m/z 587.2, LD from WAT of treated mice) was 1.1(4). The “Ratio Treated, peptide ETAEYAANTR” value (Perilipin, z 2, m/z 650.7, LD from WAT of treated mice) was 0.71(1), the “Ratio Treated, peptide IPALQYPPEK” value (Perilipin, z 2, m/z 665.5, LD from WAT of treated mice) was 1.01(4) and the “Ratio Treated, peptide EAHPLVASVCNAYEK” value (Perilipin, z 2, m/z 932, LD from WAT of treated mice) was 1.06(4). For the same compound, the “Ratio Treated, peptide VLQLPWSGTCECFQK” value (Perilipin, z 2, m/z 1020, LD from WAT of treated mice) was 0.98(4), the “Ratio Treated, peptide GVQGASNLAAWSMEPVVR” value (Perilipin, z 2, m/z 1024, LD from WAT of treated mice) was 1(2) and the “Ratio Treated, peptide GVTDNVVDTVVHYVPLPR” value (Perilipin, z 2, m/z 1078, LD from WAT of treated mice) was 0.93(3). For the same compound, the “Ratio Treated, peptide GPTLLDGDLPEQENVLQR” value (Perilipin, z 2, m/z 1085, LD from WAT of treated mice) was 1.05(4), the “Ratio Treated, peptide VLQLPWSGTCECFQK” value (Perilipin, z 3, m/z 680.8, LD from WAT of treated mice) was 1.17(2) and the “Ratio Treated, peptide GVQGASNLAAWSMEPVVR” value (Perilipin, z 3, m/z 683, LD from WAT of treated mice) was 1(2). The “Ratio Treated, peptide VVEFLLPPDKESAPSSGR” value (Perilipin, z 3, m/z 701.8, LD from WAT of treated mice) was 1.11(4), the “Ratio Treated, peptide GVTDNVVDTVVHYVPLPR” value (Perilipin, z 3, m/z 719.3, LD from WAT of treated mice) was 1(3) and the “Ratio Treated, peptide GPTLLDGDLPEQENVLQR” value (Perilipin, z 3, m/z 723.9, LD from WAT of treated mice) was 1.01(4). The “Mean isotope ratio Treated, peptide SHDTTSNTLTQLLAK” value (Protein kinase C delta binding protein, LD from WAT, 1 mg/kg i.p., 15 min) was 1.11, the “Ratio Treated, peptide (R)LEANHGLLVAR(G)” value (Protein kinase C delta binding protein, z 2, m/z 684.4, LD from WAT of treated mice) was 0.94(2) and the “Ratio Treated, peptide (K)EDPEKPVLQIESAA(—)” value (Protein kinase C delta binding protein, z 2, m/z 854.9, LD from WAT of treated mice) was 0.74(1).

From patent publication US20110223633A1, “METHODS AND REAGENTS FOR ENRICHMENT AND CHARACTERIZATION OF PHOSPHORYLATED BIOMOLECULES” (priority 2008, published 2011)
